Results on two compounds are retold here after patent US20250319053A1, “INHIBITORS OF THE PEPTIDYL-PROLYL CIS/TRANS ISOMERASE (PIN1), COMBINATIONS AND USES THEREOF” (DANA-FARBER CANCER INSTITUTE, INC., priority 2021, published 2025).

In data set [1] the target is Pin1 (Homo sapiens, UniProt Q13526). The experiment in a line: Immunoblotting for Pin1 and substrate oncoproteins in PDAC cells. It is filed as cell-based. Set-up: endogenous in cells; host or cells: primary human patient-derived PDAC cells (PDAC1, PDAC2). Conditions: 72 hrs. As for the experimental part: Cultured cells were lysed in RIPA buffer (50 mM Tris-HCl, pH 7.2, 150 mM NaCl, 1% NP40, 0.1% sodium dodecyl sulfate (SDS), 0.25% Na-deoxycholate) with freshly added phosphatase inhibitors containing 5 mM NaF and 0.2 mM sodium orthovanadate (NA3VO4), and proteinase inhibitors containing 2 μg/mL Aprotinin, 2 μg/mL Leupeptin, 2 μg/mL Pepstatin A, 1 mM DTT (dithiothreitol), 0.5 mM 4-(2-aminoethyl)-benzenesulfonyl fluoride (AEBSF), and 20 mM Chymotrypsin, and then mixed with the SDS sample buffer and loaded onto a gel after boiling for 10 minutes at 95° C. The proteins were resolved by polyacrylamide gel electrophoresis and transferred to PVDF membrane. The transferred membrane was washed three times with Tris-buffered saline containing 0.1% Tween 20 (TBST). After blocking with TBST containing 5% milk or 3% bovine serum albumin (BSA) for 1 h room temperature, the membrane was incubated with the appropriate primary antibody (diluted 1:500-1:10000) in 5% milk or 3% BSA-containing TBST at 4° C. overnight. After incubation with the primary antibody, the membrane was washed three times with TBST for a total of 30 min followed by incubation with horseradish peroxidase conjugated goat anti-rabbit or anti-mouse IgG (diluted 1:5000) for 1 h at room temperature. After three extensive washes with TBST for a total of 30 min, the immunoblots were visualized by enhanced chemi-luminescence. Immunoblotting results were quantified using ImageJ (NIH).

Data set [2] concerns human PDAC cells (PDAC1 and PDAC2). The experiment in a line: Cell proliferation assay (CellTiter-Glo) in PDAC cells. Conditions: PDAC cells, 72 hrs. The format is cell-based. As for the experimental part: Cells were seeded at a density of 5000 cells (PDAC1 and PDAC2), or 3000 cells (CAF1 and CAF2) per well in 96-well flat-bottomed plates and incubated for 24 h in culture medium. […] Control cells received dimethyl sulfoxide (DMSO) at a concentration equal to that of drug-treated cells for 72 hours. The cell viability was determined by CellTiter-Glo® 2.0 Assay (Promega) following the manufacturer's instructions.

For data set [3] the following is noted: in humans; cited from earlier work.

Chain of Pin1 (Q13526 whole entry): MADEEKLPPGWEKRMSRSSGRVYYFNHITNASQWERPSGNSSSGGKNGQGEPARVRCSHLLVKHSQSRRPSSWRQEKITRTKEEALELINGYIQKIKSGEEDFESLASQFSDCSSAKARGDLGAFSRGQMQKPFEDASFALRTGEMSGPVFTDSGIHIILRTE

As for `CC1=C(/C=C/C(C)=C/C=C/C(C)=C/C(=O)O)C(C)(C)CCC1` [ATRA, all-trans retinoic acid], the “Pin1 and its substrate oncoproteins (IB)” value in data set [1] is listed as “ablate Pin1”. Moreover, in data set [2], the “cell growth (proliferation assay)” value was “dose-dependently suppress cell growth”. The half-life in data set [3] is about 45 min.

As to “arsenic trioxide [ATO, reference compound]”, the “Pin1 and its substrate oncoproteins (IB)” value in data set [1] was “ablate Pin1”. Moreover, the “cell growth (proliferation assay)” value in data set [2] is reported as “dose-dependently suppress cell growth”.
